# Measured values published in patent publication US7135292B2, “Analysis and modification of gene expression in marine invertebrate cells” (Harbor Branch Oceanographic Institution, Inc., priority 2002, dated 2006).
# System: TIB-155 murine lymphocytes
# Assay: Microarray analysis of gene expression, PHA-treated vs untreated murine lymphocytes
# Assay type: cell-based
# Conditions: significant regulation, opposite to sponge cells
# Description: Murine Cells. Following the same experimental design as described for sponge cells, TIB-155 murine lymphocytes were cultured in the American Type Culture Collection-specified growth medium (RPMI 1640 with 0.05 mM 2-mercaptoethanol and 10% fetal bovine serum).
substance,measurement,value
phytohemagglutinin [PHA],COUP transcription factor regulation in murine cells,higher signal in the PHA-treated murine cells
